In PMC11672400, “Synthesis, Spectroscopic Characterization, Structural Analysis, and Evaluation of Anti-Tumor, Antimicrobial, and Antibiofilm Activities of Halogenoaminopyrazoles Derivatives” (Antibiotics, 2024):
≈ marks a conversion by molar mass, not a printed value. Read-outs that look alike come from different tables or passages of the source.

Legend:
[1] = system: HEp-2 epithelial tumor cells; test: MTT cell viability / anti-tumor activity; settings: Homo sapiens; for viability at 3.1 µg/mL / viability at 6.25 µg/mL / viability at 12.5 µg/mL / viability at 25 µg/mL / viability at 50 µg/mL: read-out: Cell viability on Hep2 cells (%); for IC50: read-out: IC50 µg/mL on HEp-2 Cells 48 h, HEp-2 epithelial tumor cells, MTT, 48 h
Description: The cytotoxicity of the halogenoaminopyrazole derivatives 4a–f and 5a–e was tested on L929 mouse fibroblast cells, and their anti-tumor activity was evaluated on the human carcinoma epithelial cell line HEp-2. The experiments were performed in a concentration range of 3.1–50 μg/mL.
The MTT test was used, 3-(4,5-dimethylthiazol-2-yl)-2,5-diphenyl tetrazolium bromide), which is reduced to insoluble purple-blue formazan crystals precipitated by living cells. Cell viability assessed using the MTT assay reflects the activity of mitochondrial enzymes in treated cells compared to the control culture of untreated cells.
To assess the biocompatibility of the substances, a stable mouse fibroblast cell line, NCTC (clone 929), was grown in minimal essential medium (MEM) with 10% fetal bovine serum (FBS) and 2 mM L-glutamine, along with 100 U/mL penicillin, 100 µg/mL streptomycin, and 500 µg/mL neomycin. The concentration of the compounds used was 0.06 g/2 mL DMSO.
In cytotoxicity experiments, compound solutions were utilized at concentrations of 3.1 μg/mL, 6.25 μg/mL, 12.5 μg/mL, 25 μg/mL, and 50 μg/mL. The NCTC cell suspension was placed into 96-well culture plates with a concentration of 4 × 10^4 cells/mL and incubated at 37 °C for 24 h in a 5% CO2 humidified atmosphere. The compounds under study were placed in sets of three at varying concentrations ranging from 3.1 μg/mL to 50 μg/mL in every well, and the plates were then kept under standard conditions for 48 h. Cell viability was determined through the utilization of the MTT assay. Next, the MTT solution was removed, then isopropanol was added to solubilize the formazan crystals. The colored solution was then measured for absorbance at 570 nm using a Berthold Technologies, LB 940 microplate reader (Bad Wildbad, Germany). The outcomes were determined based on Formula (1) while considering that the recorded optical density is directly related to the number of viable cells in the cell culture being examined [35, 36]. % cell viability = (OD sample/OD control) × 100%(1)
For each tested compound, a graph representing percentage cell viability versus concentrations (in the range 3.1–50 µg/mL) was obtained. Then, the IC50 value was calculated by using ED50 plus V1.0 software.

[2] = MTT cell viability / cytotoxicity on normal fibroblasts; assay type: cell-based, mouse; settings: mouse
Source text: (§1) Merck chemicals were utilized.
(§2) Untreated cells were used as control, considered 100% viable cells.

[3] = system: NCTC (clone 929) mouse fibroblast cells; test: as above; assay type: cell-based; settings: for IC50: Mus musculus, NCTC clone 929, NCTC normal fibroblasts, MTT, 48 h
Source text: as §1, §2

[4] = system: Pseudomonas aeruginosa ATCC27853; test: Qualitative evaluation of antimicrobial activity (inhibition zone, spot on agar); assay type: cell-based; set-up: key: (+) inhibited bacterial growth; (-) did not inhibit bacterial growth; settings: 0.06 g/2 mL DMSO, 5 µL spot
Description: (§3) For testing the antimicrobial/antibiofilm activity, the concentration of the studied compounds was identical to 0.06 g/2 mL DMSO. 0.5 Standard McFarland suspension was used, which was inoculated onto Mueller Hinton agar plates, (Remel, Lenexa, KS, USA), 5 µL of each compound was spotted and incubated overnight at 37 °C. Antimicrobial activity was observed as zones of inhibition formed around the spot.

[5] = system: Enterococcus faecalis ATCC29212; test: as above; assay type: cell-based; set-up: key: (+) inhibited bacterial growth; (-) did not inhibit bacterial growth; settings: 0.06 g/2 mL DMSO, 5 µL spot
Description: as §3

[6] = system: Staphylococcus aureus ATCC25923; test: as above; assay type: cell-based; set-up: key: (+) inhibited bacterial growth; (-) did not inhibit bacterial growth; settings: 0.06 g/2 mL DMSO, 5 µL spot
Description: as §3

[7] = system: Escherichia coli ATCC25922; test: as above; assay type: cell-based; set-up: key: (+) inhibited bacterial growth; (-) did not inhibit bacterial growth; settings: 0.06 g/2 mL DMSO, 5 µL spot
Description: as §3

[8] = system: Pseudomonas aeruginosa ATCC27853; test: Antibiofilm assay (crystal violet), MBIC; assay type: cell-based; settings: 37 °C; for minimal effective concentration: Pseudomonas aeruginosa, ATCC27853, 24 h, read-out: Minimum biofilm inhibition concentration (MBIC), Pseudomonas aeruginosa ATCC27853
How it was run: (§4)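 Biofilms grown in nutrient broth with test substances for 24 h at 37 °C. After rinsing with sterile physiological water, attached cells were fixed 5 min with methanol, then crystal violet stained.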

[9] = system: Enterococcus faecalis ATCC29212; test: Antibiofilm assay (crystal violet), MBIC; assay type: cell-based; settings: Enterococcus faecalis, ATCC29212, 24 h, 37 °C, read-out: Minimum biofilm inhibition concentration (MBIC), Enterococcus faecalis ATCC29212
How it was run: as §4

[10] = system: Staphylococcus aureus ATCC25923; test: Antibiofilm assay (crystal violet), MBIC; assay type: cell-based; settings: 24 h, 37 °C; for minimal effective concentration: Staphylococcus aureus, ATCC25923, read-out: Minimum biofilm inhibition concentration (MBIC), Staphylococcus aureus ATCC25923
How it was run: as §4

[11] = system: Escherichia coli ATCC25922; test: Antibiofilm assay (crystal violet), MBIC; assay type: cell-based; settings: 37 °C; for minimal effective concentration: Escherichia coli, ATCC25922, 24 h, read-out: Minimum biofilm inhibition concentration (MBIC), Escherichia coli ATCC25922
How it was run: as §4

[12] = system: Pseudomonas aeruginosa ATCC27853; test: MIC by serial microdilution in liquid medium; assay type: cell-based; settings: Pseudomonas aeruginosa, ATCC27853; 24 h, 37 °C; read-out: Minimum inhibitory concentration, Pseudomonas aeruginosa ATCC27853
How it was run: (§5)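 Twofold serial dilutions from a DMSO stock (10 mg/mL) in Tryptone Soy Broth, inoculated with 10 µL of a 10^6 CFU/mL suspension, incubated 24 h at 37 °C. Growth judged visually and by OD 620 nm; MIC (µg/mL) is the lowest concentration without growth, run in triplicate.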

[13] = system: Enterococcus faecalis ATCC29212; test: MIC by serial microdilution in liquid medium; assay type: cell-based; settings: Enterococcus faecalis, ATCC29212; 24 h, 37 °C; read-out: Minimum inhibitory concentration, Enterococcus faecalis ATCC29212
How it was run: as §5

[14] = system: Staphylococcus aureus ATCC25923; test: MIC by serial microdilution in liquid medium; assay type: cell-based; settings: 24 h, 37 °C; for MIC: Staphylococcus aureus, ATCC25923, read-out: Minimum inhibitory concentration, Staphylococcus aureus ATCC25923
How it was run: as §5

[15] = system: Escherichia coli ATCC25922; test: MIC by serial microdilution in liquid medium; assay type: cell-based; settings: 24 h, 37 °C; for MIC: Escherichia coli, ATCC25922, read-out: Minimum inhibitory concentration, Escherichia coli ATCC25922
How it was run: as §5

[16] = NCTC clone 929 (L929) mouse fibroblast cells
[17] = read-out: Cell viability on NCTC cells (%)

SMILES | viability at 3.1 µg/mL ([1]; HEp-2, 24 h) [%] | viability at 6.25 µg/mL ([1]; HEp-2, 24 h) [%] | viability at 12.5 µg/mL ([1]; HEp-2, 24 h) [%] | viability at 25 µg/mL ([1]; HEp-2, 24 h) [%] | viability at 50 µg/mL ([1]; HEp-2, 24 h) [%] | viability at 3.1 µg/mL ([1]; HEp-2, 48 h) [%] | viability at 6.25 µg/mL ([1]; HEp-2, 48 h) [%] | viability at 12.5 µg/mL ([1]; HEp-2, 48 h) [%] | viability at 25 µg/mL ([1]; HEp-2, 48 h) [%] | viability at 50 µg/mL ([1]; HEp-2, 48 h) [%] | IC50 ([1]; HEp-2, 48 h) [µg/mL] | IC50 [3] [µg/mL] | melting point [°C] | Qualitative antimicrobial activity, Pseudomonas aeruginosa ATCC27853 [4] | Qualitative antimicrobial activity, Enterococcus faecalis ATCC29212 [5] | Qualitative antimicrobial activity, Staphylococcus aureus ATCC25923 [6] | Qualitative antimicrobial activity, Escherichia coli ATCC25922 [7] | minimal effective concentration [8] [µg/mL] | minimal effective concentration [9] [µg/mL] | minimal effective concentration [10] [µg/mL] | also measured
Cc1nn(CNc2ccc(F)cc2)c(C)c1[N+](=O)[O-] [4a, N-[(3,5-dimetyl-4-nitro-1H-pyrazol-1-yl)-methyl]-4-fluoroaniline] | 99.1 ± 3.42 | 94.4 ± 1.19 | 93.38 ± 0.92 | 91.3 ± 3.73 | 73.2 ± 2.71 | 93.05 ± 0.78 | 89 ± 1.5 | 83.8 ± 2.3 | 72.3 ± 1.99 | 36.4 ± 1.45 | 40.2 ± 1.26 (≈ 152 µM) | 46.4 ± 1.33 (≈ 176 µM) | 117 to 119 | + | - | + | + | 930 ± 0.28 | 930 ± 0.27 | 230 | viability at 24 h, 3.1 µg/mL [2, 16]: 99.6 ± 1.38%; viability at 24 h, 6.25 µg/mL [2, 16]: 99.3 ± 2.2%; viability at 48 h, 6.25 µg/mL [2, 16]: 111%; viability at 24 h, 12.5 µg/mL [2, 16]: 99 ± 2.51%; viability at 48 h, 12.5 µg/mL [2, 16]: 101 ± 1.48%; viability at 24 h, 25 µg/mL [2, 16]: 90.2 ± 1.71%; viability at 48 h, 25 µg/mL [2, 16]: 73.5 ± 2.96%; viability at 24 h, 50 µg/mL [2, 16]: 62.7 ± 1.88%; viability at 48 h, 50 µg/mL [2, 16]: 47.5 ± 1.31%; Cell viability on NCTC cells (%) ([3]; 6.25 µg/mL, 48h): 109.13±3.80%; Minimum biofilm inhibition concentration (MBIC), Staphylococcus aureus ATCC25923 [10]: 230 ± 0.11 µg/mL; minimal effective concentration [11]: 930 ± 0.05 µg/mL; MIC [12]: 930 ± 0.27 µg/mL (≈ 3520 µM); MIC [13]: 930 ± 0.25 µg/mL (≈ 3520 µM); Minimum inhibitory concentration, Staphylococcus aureus ATCC25923 [14]: 230 ± 0.13 µg/mL (≈ 870 µM); MIC [14]: 230 µg/mL (≈ 870 µM); MIC [15]: 930 ± 0.14 µg/mL (≈ 3520 µM)
Cc1nn(CN(Cn2nc(C)c([N+](=O)[O-])c2C)c2ccc(F)cc2)c(C)c1[N+](=O)[O-] [5a, N,N-bis-[(3,5-dimetyl-4-nitro-1H-pyrazol-1-yl)-methyl]-4-fluoroaniline] | 90.8 ± 1.1 | 104.4 ± 0.32 | 96.6 ± 3.1 | 82.7 ± 1.85 | 57.2 ± 1.13 | 90.1 ± 2.22 | 85.2 ± 3.13 | 80.1 ± 1.54 | 67.4 ± 3.23 | 38.8 ± 0.71 | 40.5 ± 0.79 (≈ 97.1 µM) | > 50 | 78 to 80 | + | - | + | + | 460 | 930 ± 0.14 | 230 | viability at 24 h, 3.1 µg/mL [2, 17]: 97.7 ± 1.8%; viability at 48 h, 3.1 µg/mL [2, 17]: 87.19 ± 0.7%; viability at 24 h, 6.25 µg/mL [2, 17]: 98.3 ± 2.22%; viability at 48 h, 6.25 µg/mL [2, 17]: 88.7 ± 2.4%; viability at 24 h, 12.5 µg/mL [2, 17]: 100 ± 2.07%; viability at 48 h, 12.5 µg/mL [2, 17]: 98.2 ± 2.04%; viability at 24 h, 25 µg/mL [2, 17]: 97.4 ± 2.4%; viability at 48 h, 25 µg/mL [2, 17]: 93.7 ± 1.17%; viability at 24 h, 50 µg/mL [2, 17]: 88.6 ± 2.66%; viability at 48 h, 50 µg/mL [2, 17]: 92.5 ± 1.32%; Minimum biofilm inhibition concentration (MBIC), Pseudomonas aeruginosa ATCC27853 ([8]; 24 h): 460 ± 0.12 µg/mL; Minimum biofilm inhibition concentration (MBIC), Staphylococcus aureus ATCC25923 [10]: 230 ± 0.05 µg/mL; Minimum biofilm inhibition concentration (MBIC), Escherichia coli ATCC25922 ([11]; 24 h): 460 ± 0.12 µg/mL; minimal effective concentration [11]: 460 µg/mL; MIC [12]: 460 ± 0.04 µg/mL (≈ 1100 µM); MIC [13]: 930 ± 0.06 µg/mL (≈ 2230 µM); Minimum inhibitory concentration, Staphylococcus aureus ATCC25923 [14]: 460 ± 0.03 µg/mL (≈ 1100 µM); MIC [14]: 460 µg/mL (≈ 1100 µM); Minimum inhibitory concentration, Escherichia coli ATCC25922 [15]: 460 ± 0.06 µg/mL (≈ 1100 µM); MIC [15]: 460 µg/mL (≈ 1100 µM)
Cc1nn(CN(Cn2nc(C)c([N+](=O)[O-])c2C)c2cccc(Cl)c2)c(C)c1[N+](=O)[O-] [5e, N,N-bis-[(3,5-dimetyl-4-nitro-1H-pyrazol-1-yl)-methyl]-3-chloroaniline] | 103.7 ± 0.73 | 102.4 ± 0.28 | 82.29 ± 0.32 | 70.5 ± 0.88 | 59.94 ± 0.42 | 102.5 ± 0.48 | 96.06 ± 0.34 | 77.4 ± 0.63 | 60.3 ± 0.67 | 37.7 ± 0.46 | 31.7 ± 0.48 (≈ 73.1 µM) | 20.3 ± 0.45 (≈ 46.8 µM) | 154 to 155 | - | - | - | - | 930 ± 0.15 | 930 ± 0.15 | 930 ± 0.15 | viability at 24 h, 3.1 µg/mL [2, 17]: 101.9 ± 0.73%; viability at 48 h, 3.1 µg/mL [2, 17]: 95.71 ± 0.5%; viability at 24 h, 6.25 µg/mL [2, 17]: 98.57 ± 0.27%; viability at 48 h, 6.25 µg/mL [2, 17]: 89.47 ± 0.34%; viability at 24 h, 12.5 µg/mL [2, 17]: 88.26 ± 0.32%; viability at 48 h, 12.5 µg/mL [2, 17]: 69.25 ± 0.3%; viability at 24 h, 25 µg/mL [2, 17]: 77.7 ± 0.88%; viability at 48 h, 25 µg/mL [2, 17]: 40.3 ± 0.68%; viability at 24 h, 50 µg/mL [2, 17]: 65.79 ± 0.42%; viability at 48 h, 50 µg/mL [2, 17]: 26.4 ± 0.46%; minimal effective concentration [11]: 930 ± 0.15 µg/mL; MIC [12]: 1870 ± 0.04 µg/mL (≈ 4310 µM); MIC [13]: 1870 ± 0.09 µg/mL (≈ 4310 µM); MIC [14]: 930 ± 0.04 µg/mL (≈ 2140 µM); MIC [15]: 1870 ± 0.08 µg/mL (≈ 4310 µM)
